Source: patent US20250025473A1 (priority 2021, published 2025)

Legend:
PKCd = PKCd (Homo sapiens, UniProt Q05655); experiment: HotSpot in vitro kinase assay, PKCd; conditions: read-out: Compound IC50, PKCd; in vitro kinase activity
PDPK1 = target: T1, PDPK1 (Homo sapiens, UniProt O15530); experiment: HotSpot in vitro kinase assay, PDPK1; assay type: biochemical
T1 construct: purchased Reaction Biology Corporation
T1 sequence (O15530 1-556): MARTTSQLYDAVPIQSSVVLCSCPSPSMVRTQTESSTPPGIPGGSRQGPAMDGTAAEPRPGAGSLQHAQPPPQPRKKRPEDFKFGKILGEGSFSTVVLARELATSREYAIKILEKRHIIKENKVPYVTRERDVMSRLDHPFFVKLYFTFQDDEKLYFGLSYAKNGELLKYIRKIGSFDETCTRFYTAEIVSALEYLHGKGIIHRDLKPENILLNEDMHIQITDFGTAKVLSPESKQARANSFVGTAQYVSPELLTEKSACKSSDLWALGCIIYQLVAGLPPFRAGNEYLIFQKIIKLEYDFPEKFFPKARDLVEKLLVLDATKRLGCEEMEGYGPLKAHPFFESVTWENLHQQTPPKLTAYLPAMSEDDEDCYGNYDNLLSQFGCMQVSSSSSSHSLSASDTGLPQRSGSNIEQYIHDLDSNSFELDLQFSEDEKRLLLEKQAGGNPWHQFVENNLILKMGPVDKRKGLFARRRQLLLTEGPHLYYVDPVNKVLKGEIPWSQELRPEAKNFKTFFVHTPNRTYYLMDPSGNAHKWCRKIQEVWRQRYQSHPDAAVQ

HSV-2(G) [1] = experiment: Nuclear transport of VP16 (immunoblot of nuclear extracts); conditions: HaCat and primary vaginal cells, 1 h post-infection; CIMSS 10 μM, antibody 2 μg/ml
Insulin Receptor = Insulin Receptor (Homo sapiens, UniProt P06213); experiment: HotSpot in vitro kinase assay, Insulin Receptor
Insulin Receptor, sequence (P06213 28-1382): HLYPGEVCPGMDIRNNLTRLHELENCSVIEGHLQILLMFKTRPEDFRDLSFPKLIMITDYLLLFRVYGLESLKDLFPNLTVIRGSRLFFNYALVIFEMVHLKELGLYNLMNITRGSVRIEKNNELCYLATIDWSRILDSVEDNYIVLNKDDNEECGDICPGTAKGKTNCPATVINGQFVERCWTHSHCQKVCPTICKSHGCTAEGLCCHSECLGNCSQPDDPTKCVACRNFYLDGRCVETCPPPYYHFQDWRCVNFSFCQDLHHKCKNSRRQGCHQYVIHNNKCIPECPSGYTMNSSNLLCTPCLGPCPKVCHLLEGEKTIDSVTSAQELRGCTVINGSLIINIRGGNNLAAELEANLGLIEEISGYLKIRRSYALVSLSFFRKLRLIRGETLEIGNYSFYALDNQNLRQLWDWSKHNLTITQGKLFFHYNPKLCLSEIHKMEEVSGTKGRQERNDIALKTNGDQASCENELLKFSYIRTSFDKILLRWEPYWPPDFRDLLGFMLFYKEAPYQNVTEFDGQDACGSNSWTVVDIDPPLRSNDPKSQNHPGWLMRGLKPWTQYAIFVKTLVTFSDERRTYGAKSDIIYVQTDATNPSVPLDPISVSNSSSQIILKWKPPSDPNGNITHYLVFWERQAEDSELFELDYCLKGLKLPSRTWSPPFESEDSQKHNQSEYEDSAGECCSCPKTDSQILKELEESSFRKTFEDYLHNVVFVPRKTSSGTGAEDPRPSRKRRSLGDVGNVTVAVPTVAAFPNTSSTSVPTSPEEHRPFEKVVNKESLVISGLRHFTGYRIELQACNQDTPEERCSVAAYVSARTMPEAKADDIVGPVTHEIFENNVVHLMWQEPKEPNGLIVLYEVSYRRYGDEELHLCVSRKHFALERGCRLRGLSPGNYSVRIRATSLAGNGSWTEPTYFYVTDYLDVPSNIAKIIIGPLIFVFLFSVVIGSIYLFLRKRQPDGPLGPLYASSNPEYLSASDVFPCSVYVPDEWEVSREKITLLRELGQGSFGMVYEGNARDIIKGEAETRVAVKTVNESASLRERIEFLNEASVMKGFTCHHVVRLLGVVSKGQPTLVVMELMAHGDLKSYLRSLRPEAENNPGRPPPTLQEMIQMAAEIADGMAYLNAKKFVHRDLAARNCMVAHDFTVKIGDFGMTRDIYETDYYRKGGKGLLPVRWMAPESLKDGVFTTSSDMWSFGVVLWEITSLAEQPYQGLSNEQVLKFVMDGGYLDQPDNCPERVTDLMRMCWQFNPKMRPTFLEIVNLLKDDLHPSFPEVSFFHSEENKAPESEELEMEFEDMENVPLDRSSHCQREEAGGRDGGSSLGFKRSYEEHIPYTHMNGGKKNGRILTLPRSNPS

[2] = tested on: phosphatidylserine (PtdS) and Akt; experiment: Translocation of PtdS and Akt to the outer leaflet after HSV-2 (confocal, non-permeabilized); assay type: cell-based, human; conditions: 10 μM, HaCat, HSV-2(G)
PKA = PKA (Homo sapiens, UniProt P17612); experiment: HotSpot in vitro kinase assay, PKA
PLSCR1 = assay type: cell-based, monkey; conditions: Vero, 30 minutes; drugs 10 μM each
Akt, PDPK1 = assay type: cell-based, monkey; conditions: 10 μM, Vero, VSV-S, 30 and 60 minutes
AKT2 = target: T2, AKT2 (Homo sapiens, UniProt P31751); experiment: HotSpot in vitro kinase assay, AKT2; assay type: biochemical
T2 construct: purchased Reaction Biology Corporation
T2 sequence (P31751 whole entry): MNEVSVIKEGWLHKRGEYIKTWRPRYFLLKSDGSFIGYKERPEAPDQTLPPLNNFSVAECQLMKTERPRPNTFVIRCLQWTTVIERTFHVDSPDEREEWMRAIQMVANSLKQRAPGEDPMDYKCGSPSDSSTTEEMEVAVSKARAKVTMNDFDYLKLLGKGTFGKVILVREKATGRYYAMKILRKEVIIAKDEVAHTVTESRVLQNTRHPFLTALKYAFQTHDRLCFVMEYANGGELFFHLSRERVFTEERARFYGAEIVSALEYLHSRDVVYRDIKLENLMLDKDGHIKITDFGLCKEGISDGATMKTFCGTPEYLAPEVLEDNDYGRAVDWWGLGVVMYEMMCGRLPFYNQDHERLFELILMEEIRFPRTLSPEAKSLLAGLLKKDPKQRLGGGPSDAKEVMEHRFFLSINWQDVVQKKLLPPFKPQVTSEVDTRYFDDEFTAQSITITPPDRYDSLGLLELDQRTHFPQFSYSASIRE

VSV-G = assay type: cell-based
HSV-1 K26GFP = experiment: HSV capsid entry, GFP+ cells by confocal imaging; conditions: HaCat, CIMSS 10 μM, anti-Akt 2 μg/ml, cycloheximide 10 μg/ml
HSV-2(G) [3] = experiment: HSV binding assay (gD Western blot); assay type: cell-based; conditions: 10 μM, HaCat, 4 hours at 4° C.
[4] = tested on: phosphorylated Akt (pAkt T308); assay type: cell-based, human
[5] = tested on: VSV-S (VSV pseudotyped with SARS-CoV-2 spike protein); assay type: cell-based
[6] = Parallel artificial membrane permeability assay (PAMPA); assay type: in vitro ADME; conditions: 100 μM
Akt, PDPK1, PLCγ = experiment: HSV-induced phosphorylation of Akt, PDPK1 and PLCγ (confocal, biotinylation of cell surface proteins); assay type: cell-based, human; conditions: 10 μM, HaCat
ABL1 = ABL1 (Homo sapiens, UniProt P00519); experiment: HotSpot in vitro kinase assay, ABL1; conditions: read-out: Compound IC50, ABL1; in vitro kinase activity
ABL1, sequence (P00519 whole entry): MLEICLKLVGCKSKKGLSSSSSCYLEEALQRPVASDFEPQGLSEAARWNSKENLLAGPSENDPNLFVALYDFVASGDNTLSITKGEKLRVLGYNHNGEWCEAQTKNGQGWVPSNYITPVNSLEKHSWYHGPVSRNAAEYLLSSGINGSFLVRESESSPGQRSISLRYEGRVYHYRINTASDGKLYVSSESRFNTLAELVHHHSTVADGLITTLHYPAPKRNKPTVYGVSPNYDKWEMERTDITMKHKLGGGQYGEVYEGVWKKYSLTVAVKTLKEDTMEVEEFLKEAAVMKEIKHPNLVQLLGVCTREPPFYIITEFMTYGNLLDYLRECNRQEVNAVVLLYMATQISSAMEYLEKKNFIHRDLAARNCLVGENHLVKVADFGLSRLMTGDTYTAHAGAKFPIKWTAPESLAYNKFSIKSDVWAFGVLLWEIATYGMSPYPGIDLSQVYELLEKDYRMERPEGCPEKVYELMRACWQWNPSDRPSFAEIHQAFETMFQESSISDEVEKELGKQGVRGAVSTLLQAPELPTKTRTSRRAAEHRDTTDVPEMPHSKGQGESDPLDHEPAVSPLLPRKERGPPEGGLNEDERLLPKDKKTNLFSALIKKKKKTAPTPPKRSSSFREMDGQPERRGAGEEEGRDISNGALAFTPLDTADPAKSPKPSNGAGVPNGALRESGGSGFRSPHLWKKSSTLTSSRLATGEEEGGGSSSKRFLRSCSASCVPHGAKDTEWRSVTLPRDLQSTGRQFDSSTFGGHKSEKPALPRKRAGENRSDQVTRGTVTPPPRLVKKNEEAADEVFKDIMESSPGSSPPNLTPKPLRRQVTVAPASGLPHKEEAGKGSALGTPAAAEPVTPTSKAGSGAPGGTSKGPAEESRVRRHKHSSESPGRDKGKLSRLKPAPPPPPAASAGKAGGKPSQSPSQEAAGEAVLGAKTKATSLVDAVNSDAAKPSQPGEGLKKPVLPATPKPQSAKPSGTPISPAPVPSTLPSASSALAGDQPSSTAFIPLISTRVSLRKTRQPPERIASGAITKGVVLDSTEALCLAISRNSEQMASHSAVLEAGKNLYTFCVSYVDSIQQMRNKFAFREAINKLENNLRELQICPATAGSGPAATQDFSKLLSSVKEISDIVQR

HaCat cells [7] = experiment: Cell proliferation, ~50% confluent HaCat (Cell Titer 96 Aqueous One)
HaCat cells [8] = experiment: Cytotoxicity/viability, confluent HaCat cells; assay type: cell-based, human; conditions: 10 μM, fully confluent HaCat cells, up to 120 h
Procedure: Results are presented as mean±SEM odu as a percentage of the DMSO control (n=2 independent experiments each conducted in duplicate for C and 1 experiment conducted in duplicate for D). Results in B-D were compared by ANOVA, *p<0.05, **p<0.01, ***p<0.001, ****p<0.0001).
Cell proliferation and viability were determined using the Cell Titer 96® Aqueous One Solution and optical density was determined using a SpectraMax® M5e Molecular Devices multidetection microplate reader. […] The cells were then fixed and stained for activated caspases (red) and SYTOX Green (for integrity of plasma membrane) by Image-iT™ LIVE red Poly Caspase Detection kit. Nuclei were stained with Hoechst. Images were acquired by laser confocal microscope ZeissLive/DuoScan equipped with oil immersion objectives 63×1.1 and captured in an optical slice of 0.37 μm with appropriate filters. Alternatively, immunoblots were prepared and probed with antibodies to cleaved PARP-1 or cleaved caspase 8.

c-Src = c-Src (Homo sapiens, UniProt P12931); experiment: HotSpot in vitro kinase assay, c-Src; conditions: read-out: Compound IC50, c-Src; in vitro kinase activity
c-Src, sequence (P12931 whole entry): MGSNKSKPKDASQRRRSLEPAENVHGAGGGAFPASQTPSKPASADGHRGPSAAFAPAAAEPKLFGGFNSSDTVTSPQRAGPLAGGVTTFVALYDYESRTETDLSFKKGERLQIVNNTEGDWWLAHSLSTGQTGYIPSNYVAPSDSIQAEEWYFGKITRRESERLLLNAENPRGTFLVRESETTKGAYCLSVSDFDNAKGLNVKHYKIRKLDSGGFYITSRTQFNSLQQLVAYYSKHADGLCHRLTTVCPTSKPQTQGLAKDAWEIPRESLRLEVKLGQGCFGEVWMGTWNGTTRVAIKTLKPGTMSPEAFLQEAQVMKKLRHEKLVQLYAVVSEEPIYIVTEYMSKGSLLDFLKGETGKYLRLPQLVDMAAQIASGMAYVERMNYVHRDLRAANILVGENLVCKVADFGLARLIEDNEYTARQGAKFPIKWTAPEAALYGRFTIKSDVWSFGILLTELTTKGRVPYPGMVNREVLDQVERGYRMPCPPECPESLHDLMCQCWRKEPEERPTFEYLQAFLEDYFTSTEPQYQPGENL

HaCat cells [9] = experiment: Apoptosis assays (activated caspases, SYTOX Green, cleaved PARP-1/caspase 8)

PKCd, sequence (Q05655 whole entry): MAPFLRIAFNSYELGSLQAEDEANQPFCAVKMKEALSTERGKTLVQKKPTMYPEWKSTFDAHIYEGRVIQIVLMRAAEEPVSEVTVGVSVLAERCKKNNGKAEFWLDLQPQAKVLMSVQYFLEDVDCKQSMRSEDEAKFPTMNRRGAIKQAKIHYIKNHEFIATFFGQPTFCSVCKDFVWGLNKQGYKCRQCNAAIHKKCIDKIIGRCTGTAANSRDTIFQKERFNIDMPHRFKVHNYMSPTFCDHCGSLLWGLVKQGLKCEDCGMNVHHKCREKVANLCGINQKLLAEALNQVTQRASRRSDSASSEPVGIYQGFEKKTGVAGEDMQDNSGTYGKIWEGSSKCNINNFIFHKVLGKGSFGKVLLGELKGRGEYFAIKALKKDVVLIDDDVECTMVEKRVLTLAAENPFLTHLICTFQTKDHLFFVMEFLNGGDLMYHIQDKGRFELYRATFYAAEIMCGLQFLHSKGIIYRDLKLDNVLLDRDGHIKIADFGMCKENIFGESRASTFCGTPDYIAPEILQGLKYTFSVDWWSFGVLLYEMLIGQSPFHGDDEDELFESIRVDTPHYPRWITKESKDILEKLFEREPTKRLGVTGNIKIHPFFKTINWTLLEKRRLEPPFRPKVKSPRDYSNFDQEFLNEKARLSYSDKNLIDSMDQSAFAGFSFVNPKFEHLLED

## CO[C@@H]1[C@H](N(C)C(=O)CCC(=O)NCc2cn(CCCS(=O)(=O)[O-])nn2)C[C@H]2O[C@]1(C)n1c3ccccc3c3c4c(c5c6ccccc6n2c5c31)C(=O)NC4.[Na+] [CIMSS]
PKCd
  IC50: 3.64 nM
PDPK1
  IC50 for PDPK1 compared with staurosporine: comparable
PDPK1; in vitro kinase activity, read-out: Compound IC50, PDPK1
  IC50: 0.278 nM
PDPK1; read-out: inhibition of PDPK1
  inhibition at 10 µM: > 75%
HSV-2(G) [1]
  nuclear transport of VP-16: inhibited
Insulin Receptor
  fold less effective than staurosporine (IC50), insulin receptor: ~40 fold
Insulin Receptor; read-out: Compound IC50, Insulin Receptor, in vitro kinase activity
  IC50: 803 nM
[2]
  translocation of PtdS and Akt to the outer leaflet of the plasma membrane: did not block
PKA
  fold less effective than staurosporine (IC50), PKA: ~46 fold
PKA; read-out: Compound IC50, PKA, in vitro kinase activity
  IC50: 42.3 nM
PLSCR1
  phosphorylation of PLSCR1 after VSV-S: preserved
Akt, PDPK1
  extracellular phosphorylation of Akt (biotinylation, pAktT308): inhibited
AKT2; in vitro kinase activity, read-out: Compound IC50, AKT2
  IC50: 1000 nM
AKT2; read-out: inhibition of Akt2
  inhibition at 10 µM: > 75%
VSV-G
  VSV-G infection, percentage of GFP+ cells: no effect
HSV-1 K26GFP; 4 h post-temperature shift
  percentage of GFP+ cells: significantly reduced
HSV-1 K26GFP; one hour post temperature shift
  percentage of GFP+ cells: significantly decreased
HSV-2(G) [3]
  HSV binding to cells: did not block
[4]
  concentration without inhibition of intracellular Akt phosphorylation in response to insulin, relative to the parental drug: 100-1000 fold
[4]; HaCat, 10 μM insulin, permeabilized cells
  dose inhibiting intracellular Akt phosphorylation in response to insulin: > 100 µM
[5]
  VSV-S infection (plaques or viral yields): inhibited
  VSV-S infection, percentage of GFP+ cells: significantly reduced
[6]
  Recover %, PAMPA: 83%
Akt, PDPK1, PLCγ; 15 and 30 minutes following viral infection
  pPDPK1 and pPLCγ signal by confocal microscopy: inhibited
Akt, PDPK1, PLCγ; 15 minutes of HSV exposure, biotinylation
  phosphorylation of PDPK1, PLCγ and Akt in the membrane fraction: reduced
ABL1
  IC50: 143 nM
HaCat cells [7]; 24 h
  lowest concentration significantly inhibiting HaCat cell growth: no significant inhibition
HaCat cells [7]; 72 h
  lowest concentration significantly inhibiting HaCat cell growth: 100 µM
HaCat cells [8]
  cytotoxicity: little or no cytotoxicity
c-Src
  IC50: 11.9 nM
HaCat cells [9]; 10 μM, 6 or 24 hours
  induction of apoptosis (SYTOX Green and anti-caspase staining): did not induce apoptosis
HaCat cells [9]; 0.1, 1 or 10 μM, 8 hours
  PARP-1 or caspase 8 cleavage: did not induce PARP-1 or caspase 8 cleavage
